Test results published in US20140128357A1, “METHODS OF PRODUCING AND USING BRASSINOSTEROIDS TO PROMOTE GROWTH, REPAIR AND MAINTENANCE OF SKELETAL MUSCLE AND SKIN” (Rutgers University, priority 2010, published 2014).
Marks after values point to notes of the source that are not given here.

Experiments:
[1] = system: orchiectomized (ORX) Wistar rats; experiment: 10-d Hershberger assay in ORX rats, subcutaneous HB (Protocol 4); type: in vivo, rat; settings: for increase in gastrocnemius muscle mass: subcutaneous
Procedure: Protocol 4: Four-week-old sham-operated (sham, n=6) or orchiectomized (ORX, n=24) Wistar rats (Charles River Laboratories, MA) were subject to a 10-d Hershberger assay (surgically castrated peri-pubertal adult model) under the following experimental conditions: sham, ORX (vehicle), ORX (0.4 mg/kg HB subcutaneously), ORX (4 mg/kg HB subcutaneously), and ORX (0.4 mg/kg testosterone propionate subcutaneously, serving as a positive control for the assay). All procedures and measurements followed protocol 1. […]

[2] = system: TNF-α, TGF-β and ICAM-1 mRNA in wounds; experiment: Cytokine and chemokine mRNA in wound tissue, qPCR; type: in vivo; settings: day 10 post-wounding, 10 μg/mouse topically
Procedure: Cutaneous would healing is characterized by an initial inflammatory response. To evaluate the effect of brassinosteroids on inflammation in wound healing, mRNA levels of proinflammatory cytokines TNF-α and TGF-β and an adhesion chemokine ICAM-1 were measured in the wound tissue of control and treated mice on day 10 post-wounding and treatment with HB, positive control (CGS-21680), or negative control (vehicle).
Total RNA was extracted from fibroblasts using Trizol (Invitrogen, Carlsbad, Calif.). RNA was quantified spectrophotometrically by absorbance measurements at 260 and 280 nm using the NanoDrop reader (NanoDrop Technologies, Wilmington, Del.). Quality of RNA was assessed by gel electrophoresis. RNA was then treated with DnaseI (Invitrogen, Carlsbad, Calif.) to remove traces of DNA contamination and the cDNAs were synthesized with 2.5 μg of RNA using Stratascript reverse transcriptase (Stratagene, Santa Clara, Calif.) according to the manufacturers' protocols. Quantitative PCR was performed in duplicate essentially as described previously (Komarnytsky et al., Int. J. Obes. 35: 236-43, 2011) using the following gene-specific primers (IDT, Coralville, Iowa) selected using the Primer Express 2.0 software (Applied Biosystems, Foster City, Calif.): β-actin, forward primer 5′-GGGAAATCGTGCGTGACATT-3′ (SEQ ID NO: 5), and reverse primer 5′-GCG GCA GTG GCC ATC TC-3′ (SEQ ID NO: 6). Target gene expression of the housekeeping gene β-actin was assigned a value of 1. Samples were subjected to a melting curve analysis to confirm the amplification specificity. The relative change in the […] with respect to the endogenous control gene was determined using 2ΔΔCT method (Winer et al., Anal. Biochem. 270: 41-9, 1999).

[3] = system: elastin mRNA in human neonatal dermal fibroblasts (HNDF); experiment: Elastin gene expression in human dermal fibroblasts, qPCR; type: cell-based; settings: 16 h
Procedure: Human neonatal dermal fibroblasts (HNDF) were maintained in DMEM+10% FBS and were kept in a humidified 37° C. incubator with 5% CO2. Cells were plated at a density of 1×10^4 cells per well in a 24-well plate and incubated for 24 h, or until 100% confluency was reached. Subsequently, the media was removed and cells were washed with 500 μL PBS twice to remove detached cells or cell debris. HNDF were then treated for 16 h as follows: DMEM only, retinoic Acid 5 μM, retinoic acid 10 μM, Homocastasterone 5 μM and Homocastasterone 10 μM.
RNA was extracted from HNDF using Trizol reagent (Invitrogen) following manufacturer instructions. RNA was quantified spectrophotometrically by absorbance measurements at 260 nm and 280 nm using the NanoDrop system (NanoDrop Technologies, Wilmington, Del.). Quality of RNA was assessed by separation in gel-electrophoresis. To remove any traces of DNA contamination, RNA was then treated with Dnase I (Invitrogen) following the manufacturer guidelines. Complementary DNAs (cDNAs) were synthesized using 3.0 μg of RNA for each sample using Applied Biosystems High Capacity cDNA Reverse Transcription Kit following the manufacturer's protocol.
Quantitative RT-PCR (qPCR) amplifications were carried out in triplicate on an ABI 7300 Real-Time Detection System in a total volume of 25 μl containing 12.5 μl Brilliant SYBR® Green PCR master mix (Applied Biosystems), 5 μl of the 1:25 diluted cDNA, 0.5 μl of 6 μM gene-specific primers (IDT, Coralville, Iowa) and […] PCR-grade water. Primers were synthesized by Integrated DNA Technologies, Inc. (Coralville, Iowa, USA) as follows: β-actin, forward primer 5′-ACGTTGCTATCCAGGCTGTGCTAT-3′ (SEQ ID NO: 1), reverse primer 5′-CTCGGTGAGGATCTTCATGAGGTAGT-3′ (SEQ ID NO: 2); elastin, forward primer 5′-AAGCAGCAGCAAAGTTCGGT-3′ (SEQ ID NO: 3), and reverse primer 5′-ACTAAGCCTGCAGCAGCTCCATA-3′ (SEQ ID NO: 4). qPCR amplifications were performed on the 7300 Real Time PCR System (A&B Applied Biosystems) using 1 cycle at 50° C. for 2 min, 1 cycle at 95° C. for 10 min, followed by 40 cycles of 15 s at 95° C. and 1 min at 60° C. The dissociation curve was completed with one cycle of 15 s at 95° C., 1 min at 60° C., and 15 s of 95° C. No RT (NRT) and no template control (NTC) were included in each experiment as quality control steps. Target mRNA expression was analyzed using the ΔΔCt method and normalized with respect to the expression of the β-actin housekeeping gene. Cells treated with DMEM only (negative control) served as the calibrator sample in this study, and a value of 1.0 was assigned to the target gene expression of the calibrator sample. All samples were run in triplicate. A p value of 0.001 was considered to be significant.

[4] = 0.4 mg/kg subcutaneous daily 10 d
[5] = 4 mg/kg subcutaneous daily 10 d

SMILES | Bulbocavernosus/levator ani weight [1, 4] [mg] | Cowper's gland weight [1, 4] [mg] | Glans penis weight [1, 4] [mg] | Seminal vesicles weight [1, 4] [mg] | Ventral prostate weight [1, 4] [mg] | Bulbocavernosus/levator ani weight [1, 5] [mg] | Cowper's gland weight [1, 5] [mg] | Glans penis weight [1, 5] [mg] | Seminal vesicles weight [1, 5] [mg] | Ventral prostate weight [1, 5] [mg] | increase in gastrocnemius muscle mass ([1]; one-fold dose of positive control (0.4 mg/kg)) [%] | increase in gastrocnemius muscle mass ([1]; ten-fold dose of positive control (4 mg/kg)) [%] | ICAM-1 mRNA in wound tissue [2] | TGF-β mRNA in wound tissue [2] | TNF-α mRNA in wound tissue [2] | Increase in elastin mRNA levels (-fold over control) ([3]; 5 μM) [fold] | Increase in elastin mRNA levels (-fold over control) ([3]; 10 μM, listed as Homocastasterone) | Increase in elastin mRNA levels (-fold over control) ([3]; 10 μM, listed as homocastasterone)
CC[C@@H](C(C)C)[C@H](O)[C@@H](O)[C@@H](C)[C@H]1CC[C@H]2[C@@H]3COC(=O)[C@H]4C[C@H](O)[C@H](O)C[C@]4(C)[C@H]3CC[C@]12C [Compound 1, (22S,23S,24S)-2α,3α,22,23-tetrahydroxy-24 ethyl-β-homo-7-oxo-5α-cholestane-6-one] | 131.3 ± 7.1 | 11.3 ± 0.5 | 50.7 ± 1.9 | 29.0 ± 3.1 | 18.3 ± 1.2 | 147.5 ± 6.9 | 10.5 ± 0.3 | 56.3 ± 3.3 | 30.2 ± 1.2 | 23.2 ± 1.2 | 2.8 | 9.1 | significant suppression | weak effect on the downregulation | nearly complete downregulation | – | – | –
CC[C@@H](C(C)C)[C@H](O)[C@@H](O)[C@@H](C)[C@H]1CC[C@H]2[C@@H]3CC(=O)[C@H]4C[C@H](O)[C@H](O)C[C@]4(C)[C@H]3CC[C@]12C [Compound 2, (22S,23S,24S)-2α,3α, 22,23-tetrahydroxy-24-ethyl-5α-cholestan-6-one] | – | – | – | – | – | – | – | – | – | – | – | – | – | – | – | 1.7 | 3.2** fold | up to 3.23±0.4 fold
